Data set [1] has as its system Homo sapiens. Kind of data set: Volume of distribution in patient with tuberculosis at […], po administered as single dose. It is filed as ADME, organism-based. On the set-up: route oral. The settings on record: in vivo.
Data set [2] in a line: Volume of distribution in epithelial lining fluid of patient with tuberculosis at […], po administered as single dose. It is filed as ADME, organism-based. On the set-up: route oral. The conditions noted are these: human, in vivo.
The nature of data set [3]: Volume of distribution in alveolar cells of patient with tuberculosis at […], po administered as single dose. It is filed as ADME, organism-based, Pneumocyte. On the set-up: route oral. The settings on record: human, in vivo.
Data set [4] in a line: Ratio of AUC (0 to 24 hrs) to MIC in plasma of patient with Mycobacterium tuberculosis infection at […], po administered as single dose. The data set is classed as functional.
Data set [5] can be described thus: Ratio of AUC (0 to 24 hrs) to MIC in epithelial lining fluid of patient with Mycobacterium tuberculosis infection at […], po administered as single dose. It is filed as functional.

Where “and” joins values, the source holds several entries; their conditions need not be identical. Equal values may be shown once.

Consider `CO[C@H]1/C=C/O[C@@]2(C)Oc3c(C)c(O)c4c(O)c(c(/C=N/N5CCN(C)CC5)c(O)c4c3C2=O)NC(=O)/C(C)=C\C=C\[C@H](C)[C@H](O)[C@@H](C)[C@@H](O)[C@@H](C)[C@H](OC(C)=O)[C@@H]1C` [RIFAMPIN], for which the Vd is 11.56 L and 10.16 L and 8.05 L in data set [1]; 102.6 L and 102.8 L and 52.1 L in data set [2]; 49.94 L and 43.66 L and 33.65 L in data set [3]. Moreover, the RatioAUC/MIC result in data set [4] was “>=271”; in data set [5] it was “>=665”.
